We go through seven compounds from PubChem BioAssay (NCI).

Among the test systems are OVCAR-5 ovarian; SW-620 colon; EKVX NSCLC; UACC-62 melanoma; K-562 leukemia; RXF 393 renal; NCI-H23 lung; TK-10 renal; HL-60(TB) leukemia; NCI-H460 lung; HOP-62 NSCLC; BT-549 breast; NCI/ADR-RES ovarian; HOP-92 NSCLC; OVCAR-8 ovarian; PC-3 prostate; SNB-19 CNS; A549 NSCLC; T-47D breast; A498 renal.
What all share (assay): NCI anticancer screen, dose series, 48 h

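Five compound concentrations were applied to cells in 96-well plates for 48 hours; endpoints were derived by simple linear interpolation of the resulting dose-response curve. TGI: total growth inhibition.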 A value given as a limit tells only on which side of the number the result lay.

On to `CNC1C(O)C(NC)C2OC3(O)C(=O)CC(C)OC3OC2C1O` (stereo not drawn), for which the TGI with OVCAR-5 ovarian, with SW-620 colon, in the assay with EKVX NSCLC, in the assay with UACC-62 melanoma, with K-562 leukemia and with RXF 393 renal was greater than 100 µM each time. In addition, the TGI in the assay with NCI-H23 lung, in the assay with TK-10 renal, in the assay on HL-60(TB) leukemia, with NCI-H460 lung, in the assay with HOP-62 NSCLC and in the assay with BT-549 breast was greater than 100 µM each time. The TGI with NCI/ADR-RES ovarian, in the assay on HOP-92 NSCLC, in the assay with OVCAR-8 ovarian, in the assay with PC-3 prostate, in the assay with SNB-19 CNS and in the assay with A549 NSCLC was greater than 100 µM in each case. Further, the TGI in the assay with T-47D breast is greater than 100 µM.
Regarding `CCOC(=O)CC(=O)C(=O)NNC1=NCCN1`, the TGI with OVCAR-5 ovarian, in the assay on SW-620 colon, in the assay on EKVX NSCLC, in the assay on UACC-62 melanoma, in the assay on K-562 leukemia and in the assay on RXF 393 renal was greater than 100 µM throughout. Also, the TGI in the assay with NCI-H23 lung, in the assay with TK-10 renal, in the assay with HL-60(TB) leukemia, with NCI-H460 lung, with HOP-62 NSCLC and with BT-549 breast was greater than 100 µM throughout. For the same compound, the TGI with NCI/ADR-RES ovarian, in the assay with HOP-92 NSCLC, in the assay on OVCAR-8 ovarian, with PC-3 prostate, in the assay with SNB-19 CNS and with A549 NSCLC was greater than 100 µM in each case. In addition, in the assay on T-47D breast, the TGI was greater than 100 µM.
`Cc1c(-c2ccccc2)[nH]c2ccc(Cl)cc2c1=O`: the TGI in the assay on OVCAR-5 ovarian was greater than 100 µM; with SW-620 colon it was greater than 100 µM; with EKVX NSCLC, greater than 100 µM; in the assay with UACC-62 melanoma it was greater than 100 µM; with K-562 leukemia it was greater than 100 µM; in the assay on RXF 393 renal it was 57.6 µM. In addition, the TGI with NCI-H23 lung was greater than 100 µM; in the assay on TK-10 renal, greater than 100 µM; with HL-60(TB) leukemia, greater than 100 µM; in the assay on NCI-H460 lung, greater than 100 µM; in the assay on HOP-62 NSCLC, 50.2 µM; in the assay with BT-549 breast, greater than 100 µM. Also, the TGI in the assay on NCI/ADR-RES ovarian was greater than 100 µM; with HOP-92 NSCLC, 52 µM; in the assay with OVCAR-8 ovarian it was 69.5 µM; with PC-3 prostate, greater than 100 µM; with SNB-19 CNS it was greater than 100 µM; with A549 NSCLC, 0.205 µM. This compound also returned a TGI in the assay on T-47D breast greater than 100 µM.
For the compound `CC1C(=NO)C(C)C(c2ccccc2)N(N=O)C1c1ccccc1` (stereo not drawn), the TGI in the assay on SW-620 colon is 42 µM; with EKVX NSCLC, 81.8 µM; in the assay on UACC-62 melanoma, 27.2 µM; in the assay on K-562 leukemia, greater than 100 µM; in the assay on RXF 393 renal it was 32.7 µM; with NCI-H23 lung, 77.1 µM. In addition, the TGI in the assay on TK-10 renal was found to be 55.7 µM; with HL-60(TB) leukemia, 88.6 µM; with NCI-H460 lung it was 32.1 µM; with HOP-62 NSCLC, 41.6 µM; in the assay on BT-549 breast, 89.8 µM; with NCI/ADR-RES ovarian, 37 µM. Besides, the TGI in the assay on HOP-92 NSCLC is 49.3 µM; with OVCAR-8 ovarian, 41.5 µM; in the assay on PC-3 prostate it was greater than 100 µM; in the assay on SNB-19 CNS, 50.5 µM; with A549 NSCLC it was 40.7 µM; in the assay with T-47D breast it was 38.9 µM.
In the case of `NC1OC(COC(=O)c2ccccc2)C(O)C(OC(=O)c2ccccc2)C1OC(=O)c1ccccc1` (stereo not drawn), the TGI with OVCAR-5 ovarian was determined as 48.1 µM; with SW-620 colon it was 53.6 µM; in the assay on EKVX NSCLC it was 60.2 µM; in the assay on UACC-62 melanoma, 29.4 µM; in the assay with RXF 393 renal it was 31.3 µM; in the assay on NCI-H23 lung, 61.9 µM. Further, the TGI in the assay with TK-10 renal is greater than 100 µM; in the assay on NCI-H460 lung it was 27.9 µM; in the assay on HOP-62 NSCLC, 50.2 µM; in the assay on BT-549 breast it was 40.6 µM; in the assay with NCI/ADR-RES ovarian it was greater than 100 µM; in the assay with HOP-92 NSCLC, 59.1 µM. The TGI is 37.8 µM in the assay on OVCAR-8 ovarian; 58.2 µM with PC-3 prostate; greater than 100 µM in the assay with SNB-19 CNS; 48 µM in the assay with A549 NSCLC; greater than 100 µM in the assay with T-47D breast.
Consider `Cc1c(C#N)c(N)[nH]c(=S)c1C#N`, for which the TGI with OVCAR-5 ovarian, with SW-620 colon, in the assay on EKVX NSCLC, with UACC-62 melanoma, in the assay with K-562 leukemia and in the assay with RXF 393 renal was greater than 100 µM each time. The TGI with NCI-H23 lung, in the assay on TK-10 renal, in the assay with HL-60(TB) leukemia, in the assay with NCI-H460 lung, in the assay with HOP-62 NSCLC and with BT-549 breast was greater than 100 µM each time. Moreover, the TGI in the assay with A498 renal, in the assay with OVCAR-8 ovarian, in the assay on PC-3 prostate, in the assay on SNB-19 CNS, with A549 NSCLC and in the assay on T-47D breast was greater than 100 µM throughout.
With `CCOC(=O)/C(C=Nc1c(C)n(C)n(-c2ccccc2)c1=O)=C(/O)c1ccccc1`, the TGI in the assay with OVCAR-5 ovarian, in the assay with SW-620 colon, with EKVX NSCLC, with UACC-62 melanoma, with K-562 leukemia and in the assay with RXF 393 renal was greater than 100 µM in each case. In addition, the TGI in the assay with NCI-H23 lung, in the assay with TK-10 renal, in the assay with HL-60(TB) leukemia, in the assay with NCI-H460 lung, with HOP-62 NSCLC and with BT-549 breast was greater than 100 µM throughout. Besides, the TGI with HOP-92 NSCLC, in the assay with A498 renal, in the assay with PC-3 prostate, with SNB-19 CNS, in the assay with A549 NSCLC and in the assay with T-47D breast was greater than 100 µM in each case.
